{"source": "patent US7531555B2", "about": "“Compositions and methods for selective inhibition of nicotine acetylcholine receptors” (University of Florida Research Foundation, Inc., priority 2003, dated 2009)", "key": {"mice [1]": {"system": "mice", "experiment": "Body temperature, nicotine-induced hypothermia", "type": "in vivo", "details": "for Body temperature Δ° C. (Mean ± SEM): s.c.", "experimental": "Animals. Male ICR mice (20-25 g) obtained from Harlan Laboratories (Indianapolis, Ind.) were used throughout the study. Animals were housed in groups of six and had free access to food and water. Adult, male Long-Evans rats (350-460 g), obtained from Harlan (Dublin, Va.), were individually housed in a temperature-controlled (20-22° C.) environment with a 12-hour light-dark cycle (lights on at 7 a.m.). Rats were maintained within the indicated weight range by restricted post-session feeding and had ad libitum water in their home cages. Rats were drug-naive at the beginning of the study. Animals were housed in an AALAC approved facility and the study was approved by the Institutional Animal Care and Use Committee of Virginia Commonwealth University. Body temperature. Rectal temperature was determined by a thermistor probe (inserted 24 mm) and digital thermometer (Yellow Springs Instrument Co., Yellow Springs, Ohio). […] The difference in rectal temperature before and after treatment was calculated for each mouse. The ambient temperature of the laboratory varied from 21-24° C. from day to day. […] Psychopharmacology (Berl), 1995, 117:67-73). Eight to twelve mice were tested in each treatment group and each animal was tested only once. Statistical analysis. Statistical analysis of all analgesic and in vivo studies was performed using either t-test or analysis of variance (ANOVA) with Tukey's test post hoc test when appropriate."}, "rats": {"system": "rats", "experiment": "Nicotine drug discrimination in rats", "type": "in vivo", "experimental": "(§1) Animals. Male ICR mice (20-25 g) obtained from Harlan Laboratories (Indianapolis, Ind.) were used throughout the study. Animals were housed in groups of six and had free access to food and water. Adult, male Long-Evans rats (350-460 g), obtained from Harlan (Dublin, Va.), were individually housed in a temperature-controlled (20-22° C.) environment with a 12-hour light-dark cycle (lights on at 7 a.m.). Rats were maintained within the indicated weight range by restricted post-session feeding and had ad libitum water in their home cages. Rats were drug-naive at the beginning of the study. Animals were housed in an AALAC approved facility and the study was approved by the Institutional Animal Care and Use Committee of Virginia Commonwealth University.\n(§2) Statistical analysis. Statistical analysis of all analgesic and in vivo studies was performed using either t-test or analysis of variance (ANOVA) with Tukey's test post hoc test when appropriate. All differences were considered significant at p<0.05. AD50 values with 95% CL for behavioral data were calculated by unweighted least-squares linear regression as described by Tallarida and Murray (Tallarida and Murray Manual of Pharmacological Calculations with Computer Programs. 1987, Springer-Verlag, New York)."}, "[2]": {"target": "T1, mouse muscle-type (α1β1εδ) nAChR (Mus musculus, UniProt P02716+P04756+P09690+P20782)", "T1 construct": "expressed in transfected cells; host or cells: Xenopus laevis oocytes injected with subunit cRNAs; clones from Dr. Jim Boulter (UCLA)", "T1 sequence (P04756 21-457)": "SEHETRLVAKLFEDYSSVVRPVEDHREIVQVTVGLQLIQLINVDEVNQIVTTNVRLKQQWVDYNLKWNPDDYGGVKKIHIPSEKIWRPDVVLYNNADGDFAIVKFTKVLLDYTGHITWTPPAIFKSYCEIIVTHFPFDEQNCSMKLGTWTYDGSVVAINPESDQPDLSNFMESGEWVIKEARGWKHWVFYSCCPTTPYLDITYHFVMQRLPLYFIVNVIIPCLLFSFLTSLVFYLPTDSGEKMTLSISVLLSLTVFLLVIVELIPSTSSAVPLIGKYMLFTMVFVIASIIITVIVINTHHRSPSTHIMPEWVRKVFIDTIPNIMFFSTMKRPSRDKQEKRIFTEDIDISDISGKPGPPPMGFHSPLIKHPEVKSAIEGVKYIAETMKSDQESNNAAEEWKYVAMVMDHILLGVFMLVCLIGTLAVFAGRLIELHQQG", "T1 sequence (P09690 24-501)": "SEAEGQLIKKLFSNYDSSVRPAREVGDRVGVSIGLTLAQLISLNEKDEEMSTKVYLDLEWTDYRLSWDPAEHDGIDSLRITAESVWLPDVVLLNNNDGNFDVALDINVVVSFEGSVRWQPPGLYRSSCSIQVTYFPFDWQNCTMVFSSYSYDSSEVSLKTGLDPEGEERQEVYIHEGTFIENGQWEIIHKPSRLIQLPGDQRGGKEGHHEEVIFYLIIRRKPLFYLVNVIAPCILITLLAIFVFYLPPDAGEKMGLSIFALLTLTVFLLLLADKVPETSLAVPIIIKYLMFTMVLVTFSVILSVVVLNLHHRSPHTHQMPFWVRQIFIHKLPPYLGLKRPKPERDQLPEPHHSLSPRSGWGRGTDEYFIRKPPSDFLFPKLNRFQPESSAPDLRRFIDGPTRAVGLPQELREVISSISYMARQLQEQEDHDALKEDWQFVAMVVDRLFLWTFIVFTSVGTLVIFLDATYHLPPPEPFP", "T1 sequence (P20782 21-493)": "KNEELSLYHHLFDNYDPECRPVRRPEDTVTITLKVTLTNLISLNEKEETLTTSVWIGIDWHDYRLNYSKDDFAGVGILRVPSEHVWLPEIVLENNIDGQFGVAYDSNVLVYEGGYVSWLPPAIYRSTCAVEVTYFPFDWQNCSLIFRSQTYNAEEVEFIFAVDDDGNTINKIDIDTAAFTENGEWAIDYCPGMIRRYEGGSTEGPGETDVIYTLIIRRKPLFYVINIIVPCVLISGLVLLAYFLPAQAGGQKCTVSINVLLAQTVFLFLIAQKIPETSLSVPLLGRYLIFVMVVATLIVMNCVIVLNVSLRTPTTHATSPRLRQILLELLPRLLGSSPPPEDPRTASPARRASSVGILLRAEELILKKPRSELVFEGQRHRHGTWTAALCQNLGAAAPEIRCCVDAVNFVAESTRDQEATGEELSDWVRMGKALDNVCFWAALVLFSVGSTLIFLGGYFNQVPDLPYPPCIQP", "T1 sequence (P02716 25-520)": "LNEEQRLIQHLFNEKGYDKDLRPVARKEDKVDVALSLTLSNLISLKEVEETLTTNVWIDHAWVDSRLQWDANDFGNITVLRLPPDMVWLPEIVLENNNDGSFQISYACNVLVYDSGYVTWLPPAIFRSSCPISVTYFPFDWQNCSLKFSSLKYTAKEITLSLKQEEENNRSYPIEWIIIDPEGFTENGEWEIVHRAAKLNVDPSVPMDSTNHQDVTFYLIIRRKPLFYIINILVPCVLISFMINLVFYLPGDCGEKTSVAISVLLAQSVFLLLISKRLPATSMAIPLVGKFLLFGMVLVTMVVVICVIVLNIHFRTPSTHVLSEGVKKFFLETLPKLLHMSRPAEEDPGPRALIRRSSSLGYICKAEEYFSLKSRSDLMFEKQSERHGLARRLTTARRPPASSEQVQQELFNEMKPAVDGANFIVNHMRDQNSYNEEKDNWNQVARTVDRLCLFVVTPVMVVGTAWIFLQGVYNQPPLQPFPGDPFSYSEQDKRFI", "experiment": "Voltage clamp of Xenopus oocytes expressing muscle-type nAChR", "type": "cell-based"}, "mice [3]": {"system": "mice", "experiment": "Locomotor activity, nicotine-induced hypomotility", "type": "in vivo", "details": "for Locomotor Activity # Interrupts (Mean ± SEM): s.c.", "experimental": "as §1\nLocomotor activity. Mice were placed into individual Omnitech photocell activity cages (28×16.5 cm) immediately after s.c. administration of either 0.9% saline or nicotine (6.2 μmol/kg or 1 mg/kg) and were allowed to acclimate for 10 minutes. Interruptions of the photocell beams (two banks of eight cells each) were then recorded for the next 10 minutes. Data were expressed as percentage of depression where % depression=[1−(counts from nicotine-treated animals/counts from vehicle-treated animals)]×100. Mice were pretreated s.c. with either saline or TMPH 10 minutes before nicotine.\nEight to twelve mice were tested in each treatment group and each animal was tested only once.\nas §2"}, "mice [4]": {"system": "mice", "experiment": "Hot-plate test, blockade of nicotine-induced antinociception", "type": "in vivo", "experimental": "as §1\n2. Hot-plate Test. Mice were placed into a 10 cm wide glass cylinder on a hot plate (Thermojust Apparatus) maintained at 55.0° C. Two control latencies at least 10 minutes apart were determined for each mouse. […] Antinociceptive response was calculated as percent maximum possible effect (% MPE), where % MPE=[(test-control)/(40-control)×100]. The reaction time was scored when the animal jumped or licked its paws. […]\nThe doses of nicotine used in the different tests represent approximately an ED84 (Effective dose 84%) which were determined from previous works (Damaj et al. Psychopharmacology (Berl), 1995, 117:67-73). […]"}, "[5]": {"details": "TMPH (20 mg/kg)/Nicotine (1.5 mg/kg)"}, "[6]": {"details": "s.c. injection, at the indicated doses and times"}}, "note": "Where two headings read alike, the source gives them in different places.", "data": [{"smiles": "CCCCCCC(=O)OC1CC(C)(C)NC(C)(C)C1", "note": "[TMPH, 2,2,6,6-tetramethylpiperidin-4-yl heptanoate]", "values": [{"measurement": "effect on nicotine-induced hypothermia", "setting": "mice [1]; TMPH 20 mg/kg, nicotine 2.5 mg/kg", "value": "not blocked"}, {"measurement": "Body temperature Δ° C. (Mean ± SEM)", "setting": "mice [1]; [5]", "value": "−5.2 ± 0.4", "unit": "°C"}, {"measurement": "Body temperature Δ° C. (Mean ± SEM)", "setting": "mice [1]; TMPH (20 mg/kg)/Saline", "value": "−1.0 ± 0.2", "unit": "°C"}, {"measurement": "blockade of nicotine-induced hypothermia", "setting": "mice [1]; TMPH @ 20 mg/kg", "value": 0, "unit": "% blockade @ 20"}, {"measurement": "effect of TMPH by itself on body temperature", "setting": "mice [1]; [6]", "value": "did not have a significant effect"}, {"measurement": "effect of TMPH-nicotine combination on response rates", "setting": "rats; compared to vehicle, any dose combination tested, p>0.05", "value": "did not alter response rates"}, {"measurement": "nicotine-lever responding by TMPH alone", "setting": "rats; doses at which antagonism was observed (data not shown)", "value": "did not produce nicotine-lever responding"}, {"measurement": "reversibility of inhibition", "setting": "[2]; after a 5-minute wash", "value": "readily reversible"}, {"measurement": "IC50", "setting": "[2]; decrease in net charge, ACh co-applied with TMPH, read-out: IC50 (area)", "value": "390 ± 50", "unit": "nM"}, {"measurement": "IC50", "setting": "[2]; decrease in peak current amplitude, ACh co-applied with TMPH, read-out: IC50 (peak)", "value": "276 ± 20", "unit": "nM"}, {"measurement": "IC50", "setting": "[2]; inhibition still present after 5-minute wash, read-out: IC50 (recovery)", "value": "27000 ± 5500", "unit": "nM"}, {"measurement": "IC50 net charge/IC50 peak", "setting": "[2]; ratio", "value": 1.4}, {"measurement": "IC50 recovery/IC50 net charge", "setting": "[2]; ratio", "value": 69}, {"measurement": "effect on hypomotility induced by nicotine", "setting": "mice [3]; TMPH 20 mg/kg s.c. 15 minutes prior to nicotine (1.5 mg/kg)", "value": "failed to significantly reduce"}, {"measurement": "Locomotor Activity # Interrupts (Mean ± SEM)", "setting": "mice [3]; [5]", "value": "397 ± 170 # Interrupts"}, {"measurement": "Locomotor Activity # Interrupts (Mean ± SEM)", "setting": "mice [3]; TMPH (20 mg/kg)/Saline", "value": "2031 ± 160 # Interrupts"}, {"measurement": "blockade of nicotine-induced hypomotility", "setting": "mice [3]; TMPH @ 20 mg/kg", "value": 0, "unit": "% blockade @ 20"}, {"measurement": "effect of TMPH by itself on locomotor activity", "setting": "mice [3]; [6]", "value": "did not have a significant effect"}, {"measurement": "time at which nicotine's effect recovered fully to pre-treatment value, hot-plate", "setting": "mice [4]; pretreatment with TMPH 5 mg/kg", "value": 60, "unit": "min"}, {"measurement": "antinociception by TMPH itself, hot-plate", "setting": "mice [4]; [6]", "value": "did not cause antinociception"}]}]}
